In brackets after ≈: the same amount, converted by molar mass.
Legend:
MOLT-4 = assay: Cytotoxicity against human MOLT4 cells after 2 days by XTT assay; assay type: functional, cell-based; settings: MOLT-4, 48 h
[1] = Cytotoxicity against human LOX cells after 2 days by XTT assay; assay type: functional, cell-based; settings: 48 h

Work on `COC(=O)C(C)(C)C(O)C(C)C(=O)C(C)(C)/C=C/C(=O)NC(C(O)C(C)C)C(O)C(C)/C=C(\C)C(O)C(C)CCC(O)C(C)C(=O)NC1C(C)OC(=O)C(C(O)C(=O)O)NC(=O)/C=C/C=C/CC/C=C/C=C/C[C@@H]2C[C@@H](C)C[C@@H](CC(O)C(C)C(O)/C(C)=C/C(C)C(O)/C(C)=C/CC(OC(=O)CC(O)C(=O)O)C(C)C1O)O2` (some centres not stated) [CHONDROPSIN D] yielded an IC50 (MOLT-4) of 0.25 µg/mL (≈ 0.157 µM) and an IC50 [1] of 0.01 µg/mL (≈ 0.00629 µM).

Source: ChEMBL document CHEMBL1156364, “Chondropsin D, a new 37-membered-ring macrolide lactam from the marine sponge Chondropsis species” (J Nat Prod, 2001)
